Reference: patent US8207167B2, “Aryl-phenyl-sulfonamide-phenylene compounds and their use” (PIMCO 2664 Limited, priority 2008, dated 2012)
pIC50: −log10 of the molar value. Converted amounts (≈) assume the structure as drawn. Where two headings read alike, the source gives them in different places.

What was measured:
[1] = Thermodynamic aqueous solubility in fasted state simulated intestinal fluid (FaSSIF); format: physicochemical; details: fasted state simulated intestinal fluid (FaSSIF), pH 6.5, thermodynamic from solid, 25° C., 24 hours equilibration, HPLC
Protocol: (§1) Initial screening of candidate compounds was performed using in vitro assays to determine potency, metabolic stability and solubility in biologically relevant fluids. Potency was assessed using a viability assay based on the survival of the J774 macrophage cell line. Macrophages are closely related to osteoclasts and have been used previously as a model system for osteoclast survival (see, e.g., Luckman et al., 1998). Like osteoclasts, J774 macrophages are dependent on continued NFκB activation for survival, thereby providing a valuable screen for compounds with anti-inflammatory activity. Metabolic stability was measured by determining the rate of disappearance of compound in the presence of human liver microsomal preparations, as quantified by LC-MS/MS. Solubility was measured by equilibration of the compound in fasted state simulated intestinal fluid (FaSSIF) and quantified by HPLC.
Thermodynamic aqueous solubility was measured by equilibration of a number of APSAP compounds, in the solid state, with fasted state simulated intestinal fluid (FaSSIF) and quantified by HPLC. Measurement of solubility in FaSSIF provides a valuable model for the prediction of drug dissolution following oral administration.
Preparation of blank FaSSIF: NaOH pellets (174 mg), NaH2PO4.2H2O (2.235 g), and NaCl (3.093 g) were dissolved in 500 mL of water. The pH was adjusted to 6.5 using 1 M NaOH solution.
Preparation of FaSSIF: Sodium taurocholate (165 mg) was dissolved in 25 mL blank FaSSIF. 0.6 mL of a solution containing 100 mg/mL lecithin in methylene chloride was added. The methylene chloride was eliminated under vacuum at about 40° C. The vacuum was drawn for 15 minutes at 250 mbar, followed by 15 minutes at 100 mbar. […] After cooling to room temperature, the solution was then adjusted to 100 mL with blank FaSSIF.
The suspension was equilibrated at 25° C. for 24 hours, and then the pH was measured. The suspension was then filtered through a glass fibre C filter into a 96-well plate. The filtrate was then diluted by a factor of 100. Quantification was made by HPLC with reference to a standard solution of compound at approximately 0.1 mg/mL in DMSO. Different volumes of the standard, diluted and undiluted sample solutions were injected. The solubility was calculated using the peak areas determined by integration of the peak found at the same retention time as the principal peak in the standard injection. Analysis was performed on an Agilent HP1100 series system equipped with a diode array detector and using ChemStation software vB.02.01-SR1.

[2] = In vivo pharmacokinetics in rat, oral and intravenous; design: species or system Sprague-Dawley rats; details: 2.5 mg/kg; for half-life: read-out: T½ (converted)
Protocol: Absorption and metabolic stability were studied using an in vivo pharmacokinetics assay. Drug levels were assessed using ultra-performance LC/TOF-MS.
Three male Sprague-Dawley rats, 200-300 g, were dosed per route. […] Test compound was formulated in 50:50 tetraethylene glycol:PBS for both routes. Animals were given free access to food throughout the study. On the day prior to dosing, the carotid artery was cannulated for sample collection and for the intravenous study, the jugular vein was cannulated to enable dosing.
Blood samples were taken from the carotid artery at the following time points and placed in heparinised tubes:
Oral dosing—predose, 0.25, 0.5, 1, 2, 4, 8 and 24 hours post dose.
IV dosing—predose, 0.08, 0.25, 0.5, 1, 2, 4 and 8 hours post dose.
Blood samples were centrifuged to obtain plasma, which was transferred to a separate container and frozen at −20° C.
Samples were thawed at room temperature and prepared by protein precipitation with acetonitrile in the ratio 1:2 with plasma, followed by centrifugation for 10 minutes at 16,100×g (Eppendorf 5415D, Eppendorf AG, Hamburg, Germany). The supernatants were collected for analysis. The standard samples were prepared similarly, after spiking blank rat plasma samples to study compound concentrations at 1, 2, 5, 10, 20, 50, 100, 200, 500 and 1000 ng/mL. In addition, extra samples were prepared from 0-1 hour i.v. samples by diluting 1/20 with 50% aqueous acetonitrile to avoid exceeding the linear range of the analytical method.
A Waters Acquity liquid ultra-performance chromatographic system (Waters Corp., Milford, Mass., USA) with autosampler, vacuum degasser and column oven was used. The analytical column used for all compounds was a Waters BEH C18, (2.1×50 mm, 1.7 μm, Waters Corp, Milford, Mass., USA) together with a 0.2 μm on-line filter before the column. The eluents were 0.1% acetic acid (A, pH 3.2) and methanol (B). Gradient elution from 5% to 60% B in two minutes was employed, followed by one minute gradient to 90% B and column equilibration. The flow rate was 0.5 mL/min and the column oven temperature was 35° C. The flow was directed to the MS via Water Acquity photo-diode-array (PDA) detector. LC/TOF-MS data were recorded with a Micromass LCT Premier XE time-of-flight (TOF) mass spectrometer (Micromass Ltd., Manchester, England) equipped with a LockSpray electrospray ionization source. A positive ionization mode of electrospray was used for all compounds. The mass range of m/z 100-900 was acquired. The W-option of the reflector was used, and the DRE (dynamic range enhancement) option was set to on. The mass spectrometer and HPLC system were operated under Micromass MassLynx 4.1 software. Leucine enkephalin ([M+H]^+ m/z 556.2771) was used as a lock mass compound for accurate mass measurements and was delivered into the LockSpray probe with a syringe pump. MassLynx 4.1 software was used for controlling the instrumentation and for data processing.
The pharmacokinetic parameters for the test compounds were calculated by WinNonlin Pro (Pharsight Corp, CA) using standard noncompartmental methods. The elimination phase half-life (t1/2) was calculated by least-squares regression analysis of the terminal linear part of the log concentration−time curve. The area under the plasma concentration−time curve (AUC) was determined by use of the linear trapezoidal rule up to the last measurable concentration and thereafter by extrapolation of the terminal elimination phase to infinity. The tentative oral bioavailability (F) was calculated by dividing the AUC (0-24 hours) after p.o. administration by the AUC (0-8 hours) after i.v. administration, i.e., F=AUC(p.o.)/AUC(i.v), and reported as percentages (%).

[3] = system: J774 macrophages; experiment: Alamar Blue macrophage J774 viability assay; format: cell-based; details: Mus musculus, 72 hours culture with compound, Alamar Blue read-out
Protocol: as §1
In vitro potency as anti-inflammatory agents was determined for a number of APSAP compounds by incubation with J774 macrophages and subsequent determination of cell viability.
J774 cells were plated at 10^4 cells per well in 100 μL αMEM (α Modified Eagle Medium) in 96-well plates and grown overnight. The next day, test compounds were added to the cultures, and cultures were continued for another 72 hours. At the end of the culture period, cell survival was determined using an Alamar Blue assay as previously described (see, e.g., Nociari et al., 1998).
Alamar Blue is an oxidation-reduction sensitive indicator. The dye itself is in the oxidised state, which is blue and non-fluorescent. The dye can accept electrons from reducing species, such as NADPH and FADH, to form a reduced dye species, which is red and fluorescent. Thus the transformation from oxidised form to reduced form can be measured by fluorimetric or colourimetric means. For fluorescence measurements, 530-560 nm excitation and 590 nm emission wavelengths are typically used. For colourimetric measurements, absorbance at 570 nm (reduced form) and 600 nm (oxidised form) is typically measured. A simple calculation is performed to determine the relative quantities of the two species.
A high ratio of the reducing species, NADPH and FADH, to the corresponding oxidised species, NADP and FAD, is an indicator that cells are proliferating and viable. A low ratio indicates cells that are quiescent or non-viable.
Briefly, Alamar Blue (Biosource International) was added undiluted to each well (1:10 v/v, 10 μL). The plate was incubated at 37° C. for 3-4 hours and the fluorescence was measured at 590 nm, with a 25 nm bandwidth. A high reading indicated cells with normal viability, and a low reading indicated cells that have been damaged and are no longer proliferating normally. The controls gave a high fluorescence reading, indicating a high number of live, healthy cells. A potent test compound gave a low fluorescence reading.
The average results for each test compound (n=5) were expressed as a percent (%) of the average control value.
Addition of Compounds. All of the compounds studied were made up as 100 mM solutions in DMSO. These stock solutions were then diluted 1000-10000× in culture medium (αMEM). From these 100 μM or 10 μM solutions, convenient quantities (3-33 μL) were added directly to the wells so as to give the desired final compound concentration.

[4] = Human liver microsomal stability assay; format: in vitro ADME; details: pooled human liver microsomes 0.5 mg/mL, test compound 3 μM, 45 minute incubation, NADPH; for half-life at 3 μM: both sexes, pH 7.4
Protocol: as §1
Metabolic stability of APSAP derivatives was measured by determination of the rate of compound disappearance when incubated in the presence of human liver microsomes. Liver microsomes are prepared from the endoplasmic reticulum of hepatocytes and are the primary source of the most important enzymes (cytochrome P450) involved in drug metabolism. Study of drug stability in the presence of liver microsomes is accepted as a valuable model permitting rapid prediction of in vivo drug stability.
Human liver microsomes were obtained from a commercial source. Test compounds (3 μM) were incubated with pooled liver microsomes (male and female). Samples were incubated for a 45 minute period and removed at 5 time points and test compounds were analysed by LC-MS/MS.
The final incubation volume was 25 μL. A control incubation was included for each compound tested, where 0.1 M phosphate buffer pH 7.4 was added instead of NADPH. The control compounds testosterone and 7-hydroxycoumarin were included in each experiment and all incubations were performed singularly for each compound.
Each compound was incubated for 0, 5, 15, 30, and 45 minutes. The control (minus NADPH) was incubated for 45 minutes only. The reactions were stopped by the addition of 50 μL methanol containing internal standard at the appropriate time points. The incubation plates were centrifuged at 2500 rpm for 20 minutes at 4° C. to precipitate the protein.
Following protein precipitation, the sample supernatants were combined in cassettes of up to 4 compounds and analysed using standard LC-MS/MS conditions.
From a plot of the natural logarithm of the peak area ratio (i.e., the ratio of compound peak area:internal standard peak area) against time, the gradient of the line was determined. Subsequently, half-life and intrinsic clearance were calculated using the equations below: Eliminated rate constant(k)=(−gradient). […] Intrinsic Clearance(CLint)([…])=(V×0.693)/t1/2. wherein V=Incubation volume(μL/mg microsomal protein). Pharmacokinetics Studies

| SMILES | solubility at 24 h [1] [µg/mL] | AUC ([2]; i.v.) [ng/mL/min] | half-life ([2]; male, Sprague-Dawley, plasma, iv, i.v.) [min] | bioavailability ([2]; male, Sprague-Dawley, plasma, oral, F=AUC(p.o.)/AUC(i.v.)) [%] | half-life ([2]; male, Sprague-Dawley, plasma, po, p.o.) [min] | AUC ([2]; p.o.) [ng/mL/min] | pIC50 [3] | T1/2 [4] | half-life at 3 μM [4] [min] |
| --- | --- | --- | --- | --- | --- | --- | --- | --- | --- |
| O=S(=O)(Nc1cccc(CO)c1)c1ccc(-c2ccc(Cl)cc2Cl)cc1 [ABD455, 2′,4′-dichloro-N-(3-(hydroxymethyl)phenyl)biphenyl-4-sulfonamide, reference compound] | 40 (≈ 98 µM) | 9 | 31.8 | 3 | 48 | 1.2 | – | – | – |
| CNCC(O)c1cccc(NS(=O)(=O)c2ccc(-c3ccc(F)cc3F)cc2)c1 (stereo not drawn) [ABD783, 2′,4′-Difluoro-N-(3-(1-hydroxy-2-(methylamino)ethyl)phenyl)biphenyl-4-sulfonamide] | 370 (≈ 884 µM) | – | – | – | – | – | 5.93 | Stable | – |
| O=S(=O)(Nc1cccc(C(O)CN2CCOCC2)c1)c1ccc(-c2ccc(F)cc2F)cc1 (stereo not drawn) [ABD785, 2′,4′-Difluoro-N-(3-(1-hydroxy-2-morpholinoethyl)phenyl)biphenyl-4-sulfonamide] | 210 (≈ 443 µM) | – | – | – | – | – | 5.33 | – | 6 |
| NCc1cccc(NS(=O)(=O)c2ccc(-c3ccc(F)cc3F)cc2)c1 [ABD788, N-(3-(Aminomethyl)phenyl)-2′,4′-difluorobiphenyl-4-sulfonamide] | 50 (≈ 134 µM) | – | – | – | – | – | 6.00 | – | 60 |
| CN(C)C(CO)c1cccc(NS(=O)(=O)c2ccc(-c3ccc(F)cc3F)cc2)c1 (stereo not drawn) [ABD791, N-(3-(1-(Dimethylamino)-2-hydroxyethyl)phenyl)-2′,4′-difluorobiphenyl-4-sulfonamide] | 3000 (≈ 6940 µM) | – | – | – | – | – | 6.24 | – | 27 |
| O=S(=O)(Nc1cccc(C(CO)N2CCOCC2)c1)c1ccc(-c2ccc(F)cc2F)cc1 (stereo not drawn) [ABD792, 2′,4′-Difluoro-N-(3-(2-hydroxy-1-morpholinoethyl)phenyl)biphenyl-4-sulfonamide] | 4400 (≈ 9270 µM) | – | – | – | – | – | < 4.52 | – | 2 |
| N[C@H](CO)c1cccc(NS(=O)(=O)c2ccc(-c3ccc(F)cc3F)cc2)c1 [ABD855, (S)—N-(3-(1-Amino-2-hydroxyethyl)phenyl)-2′,4′-difluorobiphenyl-4-sulfonamide] | 4100 (≈ 10100 µM) | – | – | – | – | – | 6.07 | – | 289 |
